Assay results as given in patent US12662473B2, “Inhibitors for programmed cell necrosis and preparation method therefor and use thereof” (SHANGHAI INSTITUTE OF ORGANIC CHEMISTRY, CHINESE ACADEMY OF …, priority 2019, dated 2026).
Like-named read-outs stand apart in the source and are kept apart here.

Assays:
FADD−/− Jurkat cells = assay: TNF-induced programmed cell necrosis inhibition, Cell Titer-Glo viability; assay type: cell-based; conditions: Homo sapiens, Jurkat
Procedure, shortened: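 FADD-deficient Jurkat cells (2.5×10^5/mL) were pretreated 1 h at 37 °C with compound plus Smac (50 nM as added), then stimulated with TNFα (50 ng/mL as added) for 14 h at 37 °C, 5% CO2. Viability was measured as ATP by CellTiter-Glo luminescence, with unstimulated DMSO wells as 100%. EC50 values were derived.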

L929 cells = assay: as above; assay type: cell-based, mouse; conditions: Mus musculus, read-out: EC50 inhibitory activity on programmed cell necrosis
Procedure, shortened: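 L929 mouse fibroblasts were pretreated 1 h at 37 °C with compound plus Smac (500 nM solution added), then stimulated with TNFα (500 ng/mL solution added) for 14 h. Viability was read as ATP by CellTiter-Glo luminescence, with unstimulated DMSO wells set to 100%, and EC50 values were calculated.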

Cc1noc([C@@H]2CCCN2C(=O)C(C)(C)Oc2ccc(Cl)cc2)n1 [QY-1-98]
EC50 (FADD−/− Jurkat cells; 14 h, TNFa + SM164, read-out: EC50 inhibitory activity on programmed cell necrosis): 1530 nM | EC50 (FADD−/− Jurkat cells; TNFa, read-out: EC50 inhibitory activity on programmed cell necrosis): 128 nM | EC50 (L929 cells; L929, 14 h, L929 cells (mouse), TNFa + SM164): 1290 nM | EC50 (L929 cells; L929, L929 cells (mouse), TNFa): 213 nM
